# Test results taken from PubChem BioAssay AID256 (DTP/NCI, 2004).
# Values joined by “and” are separate entries in the source; they are usually repeats but may differ in a detail not shown here. Equal values may be shown once. Inconclusive results and toxic doses are left out.
# Tested on: CD2F1 mice, L1210 leukemia ip, survival T/C
# Experiment: NCI In Vivo Anticancer Drug Screen. Data for tumor model L1210 Leukemia (intraperitoneal) in CD2F1 (CDF1) mice
# Details: higher = longer survival
# Method in brief: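 Vehicle-treated tumor-bearing mice served as controls (C) for compound-treated mice (T). Reported figure is T divided by C.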
# [1] = endpoint: mean survival time, dose: 100.0 mg/kg/injection, schedule: Q01DX001 (ip), vehicle: saline with Tween-80
# [2] = endpoint: mean survival time, dose: 200.0 mg/kg/injection, schedule: Q01DX001 (ip), vehicle: saline with Tween-80
# [3] = endpoint: mean survival time, dose: 100.0 mg/kg/injection, schedule: Q04DX003 (ip), vehicle: saline with Tween-80
# [4] = endpoint: mean survival time, dose: 200.0 mg/kg/injection, schedule: Q04DX003 (ip), vehicle: saline with Tween-80
# [5] = endpoint: mean survival time, dose: 100.0 mg/kg/injection, schedule: Q01DX009 (ip), vehicle: saline with Tween-80
# [6] = endpoint: mean survival time, dose: 200.0 mg/kg/injection, schedule: Q01DX009 (ip), vehicle: saline with Tween-80
# [7] = endpoint: mean survival time, dose: 400.0 mg/kg/injection, schedule: Q01DX009 (ip), vehicle: saline with Tween-80
# [8] = endpoint: mean survival time, dose: 400.0 mg/kg/injection, schedule: Q04DX003 (ip), vehicle: saline with Tween-80
# [9] = endpoint: mean survival time, dose: 100.0 mg/kg/injection, schedule: Q04DX002 (ip), vehicle: saline with Tween-80
# [10] = endpoint: mean survival time, dose: 200.0 mg/kg/injection, schedule: Q04DX002 (ip), vehicle: saline with Tween-80
# [11] = endpoint: mean survival time, dose: 100.0 mg/kg/injection, schedule: Q01DX001 (ip), vehicle: saline
# [12] = endpoint: mean survival time, dose: 200.0 mg/kg/injection, schedule: Q01DX001 (ip), vehicle: saline
# [13] = endpoint: mean survival time, dose: 400.0 mg/kg/injection, schedule: Q01DX001 (ip), vehicle: saline
# [14] = endpoint: mean survival time, dose: 400.0 mg/kg/injection, schedule: Q01DX001 (ip), vehicle: saline with Tween-80
smiles,measurement,setting,value
OCCOCC12c3ccccc3C3C(c4ccccc41)C32 (centres undefined),T/C,"endpoint: mean survival time, dose: 25.0 mg/kg/injection, schedule: Q01DX001 (ip), vehicle: saline with Tween-80",91 % of control
same,T/C,"endpoint: mean survival time, dose: 50.0 mg/kg/injection, schedule: Q01DX001 (ip), vehicle: saline with Tween-80",97 % of control
same,T/C,[1],105 % of control
same,T/C,[2],94 % of control
Cc1nc(Cl)c(C)c(C(=O)O)n1,T/C,"endpoint: mean survival time, dose: 12.5 mg/kg/injection, schedule: Q01DX009 (ip), vehicle: other",98 % of control
same,T/C,"endpoint: mean survival time, dose: 25.0 mg/kg/injection, schedule: Q01DX009 (ip), vehicle: other",102 % of control
same,T/C,"endpoint: mean survival time, dose: 50.0 mg/kg/injection, schedule: Q01DX009 (ip), vehicle: other",104 % of control
same,T/C,"endpoint: mean survival time, dose: 100.0 mg/kg/injection, schedule: Q01DX009 (ip), vehicle: other",96 % of control
CCNC(=S)N1c2c(nc(N)[nH]c2=O)NCC1CNc1ccc(C(=O)NC(CCC(=O)O)C(=O)O)cc1 (centres undefined),T/C,"endpoint: mean survival time, dose: 100.0 mg/kg/injection, schedule: Q01DX001 (ip), vehicle: alkali diluted with saline",98 % of control
same,T/C,"endpoint: mean survival time, dose: 200.0 mg/kg/injection, schedule: Q01DX001 (ip), vehicle: alkali diluted with saline",101 % of control
same,T/C,"endpoint: mean survival time, dose: 400.0 mg/kg/injection, schedule: Q01DX001 (ip), vehicle: alkali diluted with saline",103 % of control
Cc1c(N=Nc2cc[n+]([O-])cc2)ccc(N(C)C)c1C,T/C,[3],102 % of control
same,T/C,[4],97 % of control
Cc1nnc2ncccn12,T/C,"endpoint: mean survival time, dose: 12.5 mg/kg/injection, schedule: Q01DX009 (ip), vehicle: saline",96 % of control and 102 % of control
same,T/C,"endpoint: mean survival time, dose: 25.0 mg/kg/injection, schedule: Q01DX009 (ip), vehicle: saline",96 % of control and 97 % of control
same,T/C,"endpoint: mean survival time, dose: 50.0 mg/kg/injection, schedule: Q01DX009 (ip), vehicle: saline",92 % of control and 96 % of control
same,T/C,"endpoint: mean survival time, dose: 100.0 mg/kg/injection, schedule: Q01DX009 (ip), vehicle: saline",95 % of control and 97 % of control
same,T/C,"endpoint: mean survival time, dose: 200.0 mg/kg/injection, schedule: Q01DX009 (ip), vehicle: saline",90 % of control and 96 % of control
COC(=O)c1ccc([N+](=O)[O-])cc1O,T/C,[5],105 % of control
same,T/C,[6],102 % of control
same,T/C,[7],97 % of control
O=C(CCC(=O)NO)NO,T/C,"endpoint: mean survival time, dose: 100.0 mg/kg/injection, schedule: Q04DX002 (ip), vehicle: saline",101 % of control
same,T/C,"endpoint: mean survival time, dose: 200.0 mg/kg/injection, schedule: Q04DX002 (ip), vehicle: saline",90 % of control
COC(=O)C1=CNC=C(C(=O)OC)C1c1ccccc1Cl,T/C,[3],95 % of control
same,T/C,[4],97 % of control
same,T/C,[8],89 % of control
CC1(CC2SCCCS2)SCCCS1,T/C,"endpoint: mean survival time, dose: 25.0 mg/kg/injection, schedule: Q04DX002 (ip), vehicle: saline with Tween-80",96 % of control
same,T/C,"endpoint: mean survival time, dose: 50.0 mg/kg/injection, schedule: Q04DX002 (ip), vehicle: saline with Tween-80",93 % of control
same,T/C,[9],96 % of control
same,T/C,[10],86 % of control
OC(CN(C1CCCCC1)C1CCCCC1)c1ccc(Cl)c(Cl)c1 (centres undefined),T/C,[11],95 % of control
same,T/C,"endpoint: mean survival time, dose: 100.0 mg/kg/injection, schedule: Q04DX003 (ip), vehicle: saline",95 % of control
same,T/C,[12],91 % of control
same,T/C,"endpoint: mean survival time, dose: 200.0 mg/kg/injection, schedule: Q04DX003 (ip), vehicle: saline",98 % of control
same,T/C,[13],96 % of control
same,T/C,"endpoint: mean survival time, dose: 400.0 mg/kg/injection, schedule: Q04DX003 (ip), vehicle: saline",101 % of control
Nc1nc(N)c2cc(S(=O)(=O)c3ccccc3)ccc2n1,T/C,"endpoint: median survival time, dose: 25.0 mg/kg/injection, schedule: Q01DX009 (ip), vehicle: saline with Tween-80",98 % of control
same,T/C,"endpoint: median survival time, dose: 50.0 mg/kg/injection, schedule: Q01DX009 (ip), vehicle: saline with Tween-80",100 % of control
same,T/C,"endpoint: median survival time, dose: 100.0 mg/kg/injection, schedule: Q01DX009 (ip), vehicle: saline with Tween-80",102 % of control
same,T/C,"endpoint: median survival time, dose: 200.0 mg/kg/injection, schedule: Q01DX009 (ip), vehicle: saline with Tween-80",121 % of control
Cc1ccc(C(=O)Nc2ccc(S(=O)(=O)O)c3cc(S(=O)(=O)O)cc(S(=O)(=O)O)c23)cc1NC(=O)c1cccc(NC(=O)Nc2cccc(C(=O)Nc3cc(C(=O)Nc4ccc(S(=O)(=O)O)c5cc(S(=O)(=O)O)cc(S(=O)(=O)O)c45)ccc3C)c2)c1,T/C,"endpoint: median survival time, dose: 12.5 mg/kg/injection, schedule: Q01DX005 (ip), vehicle: saline",101 % of control
same,T/C,"endpoint: median survival time, dose: 25.0 mg/kg/injection, schedule: Q01DX005 (ip), vehicle: saline",101 % of control
same,T/C,"endpoint: median survival time, dose: 50.0 mg/kg/injection, schedule: Q01DX005 (ip), vehicle: saline",116 % of control
O=[N+]([O-])c1ccc2c(c1)COCO2,T/C,[5],97 % of control
same,T/C,[6],97 % of control
same,T/C,[7],96 % of control
CN=C(Nc1ccc(OC)c2ccccc12)SC,T/C,"endpoint: mean survival time, dose: 100.0 mg/kg/injection, schedule: Q04DX003 (ip), vehicle: Klucel (hydroxypropylcellulose) (HPC)",89 % of control
same,T/C,"endpoint: mean survival time, dose: 200.0 mg/kg/injection, schedule: Q04DX003 (ip), vehicle: Klucel (hydroxypropylcellulose) (HPC)",91 % of control
O=NC1CCCCC1Cl (centres undefined),T/C,[11],96 % of control and 98 % of control and 93 % of control
same,T/C,[12],95 % of control and 102 % of control and 100 % of control
same,T/C,[13],101 % of control and 105 % of control
S=C(Nc1ccc(Cl)cc1)Nc1ccc(Cl)cc1 (tested in a mixture with another compound),T/C,[5],92 % of control
same,T/C,[3],91 % of control
same,T/C,[6],97 % of control
same,T/C,[4],88 % of control
same,T/C,[7],90 % of control
same,T/C,[8],93 % of control
O=NN(CCCl)C(=O)NC1OC(CO)C(O)C(O)C1O (centres undefined),T/C,"endpoint: mean survival time, dose: 2.5 mg/kg/injection, schedule: Q01DX009 (ip), vehicle: saline",215 % of control
same,T/C,"endpoint: mean survival time, dose: 5.0 mg/kg/injection, schedule: Q01DX009 (ip), vehicle: saline",176 % of control
same,T/C,"endpoint: mean survival time, dose: 10.0 mg/kg/injection, schedule: Q04DX002 (ip), vehicle: saline",243 % of control
same,T/C,"endpoint: mean survival time, dose: 20.0 mg/kg/injection, schedule: Q04DX002 (ip), vehicle: saline",121 % of control
same,T/C,"endpoint: median survival time, dose: 1.8 mg/kg/injection, schedule: Q01DX009 (ip), vehicle: saline",175 % of control
same,T/C,"endpoint: median survival time, dose: 3.0 mg/kg/injection, schedule: Q01DX009 (ip), vehicle: saline",175 % of control
same,T/C,"endpoint: median survival time, dose: 13.89 mg/kg/injection, schedule: Q01DX009 (ip), vehicle: saline",96 % of control
CCOc1nc(-c2ccccc2)nc(N)c1Cl,T/C,[9],98 % of control
same,T/C,[10],98 % of control
same,T/C,"endpoint: mean survival time, dose: 400.0 mg/kg/injection, schedule: Q04DX002 (ip), vehicle: saline with Tween-80",98 % of control
Nc1ccc(OCc2nc(N)nc(N)c2-c2cccc(Cl)c2)cc1,T/C,"endpoint: mean survival time, dose: 100.0 mg/kg/injection, schedule: Q01DX001 (ip), vehicle: saline + alcohol",103 % of control
same,T/C,"endpoint: mean survival time, dose: 200.0 mg/kg/injection, schedule: Q01DX001 (ip), vehicle: saline + alcohol",101 % of control
same,T/C,"endpoint: mean survival time, dose: 400.0 mg/kg/injection, schedule: Q01DX001 (ip), vehicle: saline + alcohol",106 % of control
N#CC(c1ccccc1)N(c1ccc(NS(=O)(=O)c2ccccc2)cc1)S(=O)(=O)c1ccccc1 (centres undefined),T/C,[1],93 % of control
same,T/C,[2],96 % of control
same,T/C,[14],89 % of control
O=C1Nc2ccc(C(=O)O)c(O)c2C1=O,T/C,[1],96 % of control
same,T/C,[2],100 % of control
same,T/C,[14],89 % of control
CSC(I)(N(C)C)N(C)C,T/C,"endpoint: mean survival time, dose: 75.0 mg/kg/injection, schedule: Q01DX001 (ip), vehicle: saline",98 % of control
same,T/C,"endpoint: mean survival time, dose: 150.0 mg/kg/injection, schedule: Q01DX001 (ip), vehicle: saline",101 % of control
same,T/C,"endpoint: mean survival time, dose: 300.0 mg/kg/injection, schedule: Q01DX001 (ip), vehicle: saline",98 % of control
CCCCCC(=O)/C=C/Sc1n[nH]c(=O)[nH]c1=O,T/C,"endpoint: mean survival time, dose: 12.5 mg/kg/injection, schedule: Q01DX005 (ip), vehicle: distilled water + Tween-80",96 % of control
same,T/C,"endpoint: mean survival time, dose: 25.0 mg/kg/injection, schedule: Q01DX005 (ip), vehicle: distilled water + Tween-80",100 % of control
same,T/C,"endpoint: mean survival time, dose: 50.0 mg/kg/injection, schedule: Q01DX005 (ip), vehicle: distilled water + Tween-80",104 % of control
Cn1ncc(C(=O)O)c1[N+](=O)[O-],T/C,[11],102 % of control
same,T/C,[12],103 % of control
same,T/C,[13],94 % of control
NNC(=O)c1nc(N)n[nH]1,T/C,[3],101 % of control
same,T/C,[4],103 % of control
same,T/C,[8],104 % of control
O.O.[NH-]C1CCCCC1[NH-].[Pt+2] (centres undefined),T/C,"endpoint: mean survival time, dose: 0.31 mg/kg/injection, schedule: Q01DX009 (ip), vehicle: dextrose",109 % of control
same,T/C,"endpoint: mean survival time, dose: 0.63 mg/kg/injection, schedule: Q04DX003 (ip), vehicle: water",124 % of control
same,T/C,"endpoint: mean survival time, dose: 1.25 mg/kg/injection, schedule: Q01DX009 (ip), vehicle: dextrose",124 % of control
CC(=O)NC(Cc1ccccc1)c1ccccc1 (centres undefined),T/C,[1],112 % of control
same,T/C,[2],105 % of control
same,T/C,[14],86 % of control
